Results: patent publication US20250003877A1, “Silyl Bridged Dyes” (priority 2021, published 2025)

Assays:
[1] = molecular target: T1, SNAP-tag (pSNAPf-H2B) in HeLa cells (Homo sapiens, UniProt P16455, A127T/A154D/C150Q/C62A/E30R/G131K/G132T/G153L/K125A/K32I/L33F/M134L/N157G/Q115S/Q116H/R128A/R135S/S151G/S152D/S159E); assay: Live cell imaging of SNAP-tag-expressing cells with Si-bridge dyes; format: cell-based; details: 3 μM dye, 30 min, 37° C., washed, HeLa transfected with pSNAPf-H2B
T1 construct: host or cells: HeLa cells, transient transfection with Lipofectamine 2000
T1 sequence (P16455 1-182 E30R/K32I/L33F/C62A/Q115S/Q116H/K125A/A127T/R128A/G131K/G132T/M134L/R135S/C150Q/S151G/S152D/G153L/A154D/N157G/S159E limits assumed): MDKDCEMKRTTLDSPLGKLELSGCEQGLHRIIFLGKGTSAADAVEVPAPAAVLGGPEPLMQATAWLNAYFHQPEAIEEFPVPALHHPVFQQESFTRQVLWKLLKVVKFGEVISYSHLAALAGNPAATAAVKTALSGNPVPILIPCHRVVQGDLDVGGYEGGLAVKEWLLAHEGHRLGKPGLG
Method: HeLa cells were seeded in 35 mm glass bottom dishes (Cellvis, catalog no. D35-28-O-N), and transfected with […] control plasmid (Addgene #101124). Transient transfections were performed using Lipofectamine 2000 (Invitrogen, catalog no. 1168019) following the manufacturer's instructions. HeLa cell labeling and confocal imaging were performed 24 hr after transfection. Labeling with SNAP-Cell® 647 SiR (New England Biolabs, catalog no. […]) and new dyes 065 and 066 containing benzylguanine SNAP-tag ligands were performed following the manufacturer's instructions. SNAP-tag is another popular system for labeling fusion proteins. SNAP-tag is more promiscuous towards its substrates than HaloTag, and thus it was anticipated that the relative fluorogenic behavior for each Si-bridge dye isomer would differ from the stark facial selectivity results seen above with Hoechst probes and HaloTag. Briefly, cells were incubated with 3 μM dye in cell culture medium for 30 min at 37° C. The cells were then washed three times with tissue culture medium and incubated in fresh medium for 30 minutes. The medium was replaced one more time to remove unreacted […] before imaging. […] Dyes fluorescing in the Cy5 channel were excited with the HeNe (633 nm) laser at a 15% intensity and detected through a 640-615 band pass filter and […] pinhole. […]

[2] = PBS
[3] = format: physicochemical
From the text: Strain-promoted lowering of the Si σ* energy in cyclic silanes is another approach to red-shift emission. Treatment of 1-1 with cyclohexyl dichlorosilane yielded the expected Si-rhodamine dye (Scheme 1A). However, the reactions with the corresponding five and four-membered ring analogs yielded many side products. The cyclopentyl analog 028 was obtained in good yield through an alternate synthetic pathway (Scheme 4), but the four-membered ring analog could not be isolated by either route. The silacyclopentyl analog is red-shifted compared to 001 and compound 014, consistent with a strain-induced LUMO-lowering effect (Table 3).
Scheme 10. Instability of silacyclopentyl dye 028 in solution. Proposed ring-opened product in methanol (the solvent used for HRMS analysis).

CN(C)c1ccc2c(c1)[Si@](C)(CCCSCC(=O)NCc1ccc(COc3nc(N)nc4[nH]cnc34)cc1)c1cc(N(C)C)ccc1[C@]21OC(=O)c2ccccc21 [Compound 065, N-(4-(((2-Amino-9H-purin-6-yl)oxy)methyl)benzyl)-2-((3-((5s,10s)-3,7-bis(dimethylamino)-5-methyl-3′-oxo-3′H,5H-spiro[dibenzo[b,e]siline-10,1′-isobenzofuran]-5-yl)propyl)thio)acetamide]
labeling of SNAP-tag [1]: labeled SNAP-tag

CN(C)c1ccc2c(c1)[Si@](C)(CCCSCC(=O)NCc1ccc(COc3nc(N)nc4[nH]cnc34)cc1)c1cc(N(C)C)ccc1[C@@]21OC(=O)c2ccccc21 [Compound 066, N-(4-(((2-Amino-9H-purin-6-yl)oxy)methyl)benzyl)-2-((3-((5r,10r)-3,7-bis(dimethylamino)-5-methyl-3′-oxo-3′H,5H-spiro[dibenzo[b,e]siline-10,1′-isobenzofuran]-5-yl)propyl)thio)acetamide]
labeling of SNAP-tag [1]: labeled SNAP-tag

Cc1ccccc1C1=C2C=CC(=[N+](C)C)C=C2[Si]2(CCCC2)c2cc(N(C)C)ccc21 [Compound 028, N-(7-(Dimethylamino)-10-(o-tolyl)-3H-spiro[dibenzo[b,e]siline-5,1′-silolan]-3-ylidene)-N-methylmethanaminium]
Brightness (ϕ × ε) [2]: 54,826 | Em (nm) [2]: 671 nm | Ex (nm) [2]: 653 nm | ε (M^−1 cm^−1) [2]: 158,000 M^−1 cm^−1 | ϕ (quantum yield) ([2]; pH 7.4): 0.35 | chemical stability in solution [3]: chemically unstable in solution
